Patent US7311901B2, “Amphiphilic block copolymer and polymeric composition comprising the same for drug delivery” (Samyang Corporation, priority 2003, dated 2007)

System: Taxol®-pretreated cancer cells
Assay: IC50 of paclitaxel for Taxol®-pretreated cancer cells
Format: cell-based, human
Conditions: Taxol®-pretreated vs native cancer cells; data not shown

CC(=O)O[C@H]1C(=O)[C@@]2(C)[C@H]([C@H](OC(=O)c3ccccc3)[C@]3(O)C[C@H](OC(=O)[C@H](O)[C@@H](NC(=O)c4ccccc4)c4ccccc4)C(C)=C1C3(C)C)[C@]1(OC(C)=O)CO[C@@H]1C[C@@H]2O [paclitaxel]
IC50 of paclitaxel: increased significantly
